Reference: PubChem BioAssay (NCI)
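Compound exposure: 48 hours, 5 concentrations, 96-well plates. TGI: total growth inhibition.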

Each compound was assayed on MALME-3M melanoma (assay: inhibition of tumour cell growth, NCI panel, 48 h).

`O=NNc1ccc(S(=O)(=O)c2ccc3ccccc3c2)cn1` and `CC(=O)Nc1cccc(N2C(=O)/C(=C\c3cccc(Oc4ccccc4)c3)SC2c2ccccc2)c1` (configuration not stated) cannot be ordered by TGI: over 100 µM for the first, over 100 µM for the second.

Compared with `C[C@@H]1CC[C@H]2[C@H](C)C(OC3O[C@@H]4O[C@@]5(C)CC[C@H]6[C@H](C)CC[C@@H]([C@@H]3C)[C@@]46O5)O[C@@H]3O[C@@]4(C)CC[C@@H]1[C@]32O4` (some centres not stated), `CN1CCC(C(O)(c2ccccc2)c2ccc(Br)cc2)CC1` (configuration not stated) is lower in TGI: over 100 µM for the first, 27.6 µM for the second.

Work on `CSc1nc(=O)cnn1C` yielded a TGI of over 100 µM.

The compounds below were run on NCI/ADR-RES ovarian (assay: inhibition of tumour cell growth, NCI panel, 48 h).

`O=NNc1ccc(S(=O)(=O)c2ccc3ccccc3c2)cn1` and `CC(=O)Nc1cccc(N2C(=O)/C(=C\c3cccc(Oc4ccccc4)c3)SC2c2ccccc2)c1` (configuration not stated) cannot be ordered by TGI: over 100 µM for the first, over 100 µM for the second.

`CN1CCC(C(O)(c2ccccc2)c2ccc(Br)cc2)CC1` (configuration not stated) and `O=c1c(Sc2c(SCSc3cnc4ccccc4c3Sc3c[nH]c4ccccc4c3=O)cnc3ccccc23)c[nH]c2ccccc12` cannot be ordered by TGI: over 100 µM for the first, over 100 µM for the second.

`CSc1nc(=O)cnn1C` and `Nc1ncc2ncn(C3CCC(CO)O3)c2n1` (configuration not stated) cannot be ordered by TGI: over 100 µM for the first, over 100 µM for the second.

The compounds below were run on CCRF-CEM leukemia (assay: inhibition of tumour cell growth, NCI panel, 48 h).

Going from `O=NNc1ccc(S(=O)(=O)c2ccc3ccccc3c2)cn1` to `CC(=O)Nc1cccc(N2C(=O)/C(=C\c3cccc(Oc4ccccc4)c3)SC2c2ccccc2)c1` (configuration not stated), the TGI falls from over 100 µM to 51.6 µM.

`C[C@@H]1CC[C@H]2[C@H](C)C(OC3O[C@@H]4O[C@@]5(C)CC[C@H]6[C@H](C)CC[C@@H]([C@@H]3C)[C@@]46O5)O[C@@H]3O[C@@]4(C)CC[C@@H]1[C@]32O4` (some centres not stated) and `CN1CCC(C(O)(c2ccccc2)c2ccc(Br)cc2)CC1` (configuration not stated) cannot be ordered by TGI: over 100 µM for the first, over 100 µM for the second.

`O=c1c(Sc2c(SCSc3cnc4ccccc4c3Sc3c[nH]c4ccccc4c3=O)cnc3ccccc23)c[nH]c2ccccc12` and `Nc1ncc2ncn(C3CCC(CO)O3)c2n1` (configuration not stated) cannot be ordered by TGI: over 100 µM for the first, over 100 µM for the second.

Compound `CSc1nc(=O)cnn1C` has a TGI of over 100 µM.

Each compound was assayed on SF-539 CNS (assay: inhibition of tumour cell growth, NCI panel, 48 h).

`O=NNc1ccc(S(=O)(=O)c2ccc3ccccc3c2)cn1` and `CC(=O)Nc1cccc(N2C(=O)/C(=C\c3cccc(Oc4ccccc4)c3)SC2c2ccccc2)c1` (configuration not stated) cannot be ordered by TGI: over 100 µM for the first, over 100 µM for the second.

First: C[C@@H]1CC[C@H]2[C@H](C)C(OC3O[C@@H]4O[C@@]5(C)CC[C@H]6[C@H](C)CC[C@@H]([C@@H]3C)[C@@]46O5)O[C@@H]3O[C@@]4(C)CC[C@@H]1[C@]32O4 (some centres not stated)
Second: CN1CCC(C(O)(c2ccccc2)c2ccc(Br)cc2)CC1 (configuration not stated)
The TGI of the first is higher: over 100 µM for the first, 32.2 µM for the second.

`O=c1c(Sc2c(SCSc3cnc4ccccc4c3Sc3c[nH]c4ccccc4c3=O)cnc3ccccc23)c[nH]c2ccccc12` and `Nc1ncc2ncn(C3CCC(CO)O3)c2n1` (configuration not stated) cannot be ordered by TGI: over 100 µM for the first, over 100 µM for the second.

These compounds were tested on NCI-H522 lung (assay: inhibition of tumour cell growth, NCI panel, 48 h).

`O=NNc1ccc(S(=O)(=O)c2ccc3ccccc3c2)cn1` and `CC(=O)Nc1cccc(N2C(=O)/C(=C\c3cccc(Oc4ccccc4)c3)SC2c2ccccc2)c1` (configuration not stated) cannot be ordered by TGI: over 100 µM for the first, over 100 µM for the second.

First: C[C@@H]1CC[C@H]2[C@H](C)C(OC3O[C@@H]4O[C@@]5(C)CC[C@H]6[C@H](C)CC[C@@H]([C@@H]3C)[C@@]46O5)O[C@@H]3O[C@@]4(C)CC[C@@H]1[C@]32O4 (some centres not stated)
Second: CN1CCC(C(O)(c2ccccc2)c2ccc(Br)cc2)CC1 (configuration not stated)
The TGI of the first is higher: over 100 µM for the first, 30.4 µM for the second.

`O=c1c(Sc2c(SCSc3cnc4ccccc4c3Sc3c[nH]c4ccccc4c3=O)cnc3ccccc23)c[nH]c2ccccc12` and `Nc1ncc2ncn(C3CCC(CO)O3)c2n1` (configuration not stated) cannot be ordered by TGI: over 100 µM for the first, over 100 µM for the second.

`CSc1nc(=O)cnn1C` was tested, and the TGI was over 100 µM.

The compounds below were run on HS 578T breast (assay: inhibition of tumour cell growth, NCI panel, 48 h).

`O=NNc1ccc(S(=O)(=O)c2ccc3ccccc3c2)cn1` and `CC(=O)Nc1cccc(N2C(=O)/C(=C\c3cccc(Oc4ccccc4)c3)SC2c2ccccc2)c1` (configuration not stated) cannot be ordered by TGI: over 100 µM for the first, over 100 µM for the second.

`C[C@@H]1CC[C@H]2[C@H](C)C(OC3O[C@@H]4O[C@@]5(C)CC[C@H]6[C@H](C)CC[C@@H]([C@@H]3C)[C@@]46O5)O[C@@H]3O[C@@]4(C)CC[C@@H]1[C@]32O4` (some centres not stated) and `CN1CCC(C(O)(c2ccccc2)c2ccc(Br)cc2)CC1` (configuration not stated) cannot be ordered by TGI: over 100 µM for the first, over 100 µM for the second.

`O=c1c(Sc2c(SCSc3cnc4ccccc4c3Sc3c[nH]c4ccccc4c3=O)cnc3ccccc23)c[nH]c2ccccc12` and `Nc1ncc2ncn(C3CCC(CO)O3)c2n1` (configuration not stated) cannot be ordered by TGI: over 100 µM for the first, over 100 µM for the second.

For `CSc1nc(=O)cnn1C`, the TGI was over 100 µM.

Each compound was assayed on LOX IMVI melanoma (assay: inhibition of tumour cell growth, NCI panel, 48 h).

Going from `C[C@@H]1CC[C@H]2[C@H](C)C(OC3O[C@@H]4O[C@@]5(C)CC[C@H]6[C@H](C)CC[C@@H]([C@@H]3C)[C@@]46O5)O[C@@H]3O[C@@]4(C)CC[C@@H]1[C@]32O4` (some centres not stated) to `CN1CCC(C(O)(c2ccccc2)c2ccc(Br)cc2)CC1` (configuration not stated), the TGI falls from over 100 µM to 32.9 µM.

`CC(=O)Nc1cccc(N2C(=O)/C(=C\c3cccc(Oc4ccccc4)c3)SC2c2ccccc2)c1` (configuration not stated) and `O=c1c(Sc2c(SCSc3cnc4ccccc4c3Sc3c[nH]c4ccccc4c3=O)cnc3ccccc23)c[nH]c2ccccc12` cannot be ordered by TGI: over 100 µM for the first, over 100 µM for the second.

Work on `Nc1ncc2ncn(C3CCC(CO)O3)c2n1` (configuration not stated) yielded a TGI of over 100 µM.

These compounds were tested on MCF7 breast (assay: inhibition of tumour cell growth, NCI panel, 48 h).

`O=NNc1ccc(S(=O)(=O)c2ccc3ccccc3c2)cn1` and `CC(=O)Nc1cccc(N2C(=O)/C(=C\c3cccc(Oc4ccccc4)c3)SC2c2ccccc2)c1` (configuration not stated) cannot be ordered by TGI: over 100 µM for the first, over 100 µM for the second.

Compared with `C[C@@H]1CC[C@H]2[C@H](C)C(OC3O[C@@H]4O[C@@]5(C)CC[C@H]6[C@H](C)CC[C@@H]([C@@H]3C)[C@@]46O5)O[C@@H]3O[C@@]4(C)CC[C@@H]1[C@]32O4` (some centres not stated), `CN1CCC(C(O)(c2ccccc2)c2ccc(Br)cc2)CC1` (configuration not stated) is lower in TGI: over 100 µM for the first, 64.2 µM for the second.
